Experiments:
Assay type in all cases: in vitro ADME, human
CYP2C9 = test system: T1, CYP2C9; experiment: P450 phenotyping, chemical inhibitors in HLMs, CYP2C9; settings: CYP2C9 probe substrate, 5 µM, specific inhibitor
T1 construct: tissue Corning Co., Ltd (Shanghai, China); host or cells: human liver microsomes
Protocol: (§1) According to the result of metabolite identification, three metabolites were selected as the targets for metabolic phenotyping. Seven CYP isozymes (CYP1A2, CYP2B6, CYP2C8, CYP2C9, CYP2C19, CYP2D6, and CYP3A4) were investigated using two kinds of methods: chemical inhibitors in human liver microsomes (HLMs) method (Experiment 1) and rhCYP isozymes method (Experiment 2).
(§2) Experiment 1: HLMs were thawed on ice and diluted in100 mM sodium phosphate buffer (pH 7.4) containing 3 mM magnesium chloride. […] After 10 min of preincubation at 37°C, the reactions were initiated by adding 20 µL of NADPH (10 mM) and then incubated at 37 °C in a shaking water bath for 30 min. The samples were prepared in triplicates. The reactions were terminated by adding 600 µL of ice-cold acetonitrile and stored at −20°C until analysis. Control samples without NADPH and 0-time point samples were included. As positive controls, the probe substrates of each P450 isozyme under the same conditions were tested, and specific inhibitors was added. Next, the samples were centrifuged at 13,000 rpm for 10 min, the supernatants were determined by LC–MS/MS.

rhCYP CYP2C9 = test system: T2, rhCYP CYP2C9; experiment: P450 phenotyping, rhCYP isozymes, CYP2C9; settings: rhCYP2C9 probe substrate, 1 µM
T2 construct: purchased Corning Co., Ltd (Shanghai, China)
Source text: as §1
(§3) Experiment 2: Each rhCYP isozyme was thawed and diluted as above method. As positive controls, the probe substrates of each P450 isozyme were tested under the same conditions. […] Vx ([…]) is the production rate of metabolites for each rhCYP isozyme.

rhCYP CYP3A4 = test system: T3, rhCYP CYP3A4; experiment: P450 phenotyping, rhCYP isozymes, CYP3A4; settings: rhCYP3A4 probe substrate, 0.4 µM
T3 construct: purchased Corning Co., Ltd (Shanghai, China)
Source text: as §1, §3

CYP3A4 = test system: T4, CYP3A4; experiment: P450 phenotyping, chemical inhibitors in HLMs, CYP3A4; settings: CYP3A4 probe substrate, 2 µM, specific inhibitor
T4 construct: tissue Corning Co., Ltd (Shanghai, China); host or cells: human liver microsomes
Protocol: as §1, §2

SMILES | %Inhibation in HLM (CYP2C9) [%] | CL int in rhCYP (rhCYP CYP2C9) [µL/min/pmol] | CL int in rhCYP (rhCYP CYP3A4) [µL/min/pmol] | %Inhibation in HLM (CYP3A4) [%]
O=C(O)Cc1ccccc1Nc1c(Cl)cccc1Cl [Diclofenac] | 89.9 | 6.15 | – | –
Cc1ncc2n1-c1ccc(Cl)cc1C(c1ccccc1F)=NC2 [Midazolam] | – | – | 9.13 | 84.7

Source: paper PMC8689140 (Frontiers in Pharmacology, 2021)
